Earlier results, collected in EP4066850A2, “PEPTIDES AND METHODS OF TREATING DYSTROPHY-RELATED DISORDERS USING THE SAME” (Bioincept LLC, priority 2017, dated 2018).

Settings: IV infusion together with radiation; xerostomia treatment (Kouvaria et al 2007)

For `NCCCNCCSP(=O)(O)O` [Amifostine], the side effects is listed as “serious side effects including fatal skin reaction”.
